For experiment [1], the system named is Hippocampal Cell Line (HT22). Kind of experiment: Glutamate-induced oxidative toxicity in hippocampal cell line (HT22): mitochondrial membrane potential by JC-1 fluorescence ratio. The class given is cell-based, mouse. As to conditions: 10^-7 M compound; for protection against glutamate-mediated damage to the mitochondria (in words) / JC-1 ratio B (+glutamate 5 mM) / JC-1 ratio A (control conditions): HT-22 cells; for protection against glutamate-mediated damage to the mitochondria (in words): 5 mM glutamate; for JC-1 ratio B (+glutamate 5 mM) / JC-1 ratio A (control conditions): 24h, fluorescence ratio 530/590:480/530; for JC-1 ratio A (control conditions): control conditions (no glutamate); for effect on mitochondrial membrane potential of the control cells (in words): HT-22 control cells without glutamate; for JC-1 ratio B/A (%): ratio of +glutamate 5 mM to control conditions. As to the method: Table 1: Effects of ML Compounds of the Invention on Glutamate-induced Oxidative Toxicity in Hippocampal Cell Line (HT22)
The changes in the mithochondrial membrane potential was assessed using the fluorescent probe 5,5′,6,6′-tetrachloro-1,1′,3,3′-tetraethylbenzimidazolcarbocyanine iodide (JC-1) according to Nuydens et al, 1999, L of Neuroscience; 92, 153-9. Immortalized mouse hipocampal cells (HT-22) were maintained in Dulbecco's modified minimal essential medium (DMEM) supplemented with 10% fetal bovine serum and passaged by trypsinization. Cells (3000 per 96 palte well) were cultured for 24h with DMEM containing 5 mM glutamate and were treated with 10^−7 M of the ML compounds. Cells were then loaded with JC-1 by changing the culture medium to Phosphate buffered saline (PBS) containing 1 g/L glucose and 10 uM JC-1 for 10 mln. at 37° and were washed once. Flouresence was then measured in a plate reader at excitation/emission wavelengths of 480/530 nm and 530/590 nm. The ratio of the fluoresence intensities in the two wavelengths 530/590:480/530 is an indication of the mitochondrial membrane potential. Decrease in this ratio indicates depolarization of the mitochondrial membrane due to damage induced by anoxic or other phathological situations leading to apoptosis of cells.

The subject of experiment [2] is 125I-Melatonin Binding in Membranes of Hamster Brain. In words: 125I-Melatonin binding in membranes of hamster brain (competition). As to conditions: for % bound at competitor concentration 10-6M / 125I-melatonin bound at competitor concentration 10-6M: competitor 10^-6M; for % bound at competitor concentration 10-6M / % bound at competitor concentration 10-7M: relative to competitor concentration 0; for 125I-melatonin bound at competitor concentration 10-6M / 125I-melatonin bound at competitor concentration 10-7M: 125I-melatonin 250 pM, 37° C., 60 min, radioactivity, unit not given; for % bound at competitor concentration 10-7M / 125I-melatonin bound at competitor concentration 10-7M: competitor 10^-7M; for inhibition of the specific 125I-melatonin binding: 10^-6M. As to the method:
^125I-Melatonin Binding in Membranes of Hamster Brain
2 whole hamster brains were homogenized with Teflon-glass homogenizer in 10 vol/g tissue of ice cold Tris-HCl buffer (50 mmol/L Tris, 5 mmol/L CaCl2, pH=7.4) and spun at 10,000 g for 10 min. the supernatant were spun at 100,000 g for two hours to yield a crude synaptosomal pellet (P2).
Aliquots of suspended P2 (20 ul) were incubated at 37° C. with ^125I-melatonin (250 pM) for 60 mln. in Tris-Hcl buffer in the absence or presence of 1 nM-100 μM test-substances (ML compounds and melatonin). The binding reaction was terminated by the addition of 4 ml ice cold Tris buffer. Membranes were then collected by vacuum filtration using GF/C glass fiber filters and washed with 3×4 ml ice-cold buffer. The filters containing the bound ^125I-melatonin were assayed for the amount of radioactivity in a γ counter. […] ML-29, ML-30 and ML-31 (10^−6M) inhibited (≧20%) the specific ^125I-melatonin binding. ML-27, ML-28 and ML-23 reduced the specific ^125I-melatonin binding to a lesser extent (˜13%).

The text below walks through data of patent publication US6780884B2, “Derivating of tryptamine and analogous compounds and pharmaceutical formulations containing them” (Neurim Pharmaceuticals (1991) Ltd., priority 2000, dated 2004).

The structures appear in SMILES notation.

On to `Cc1ccc2[nH]cc(CCNc3cc(N)c([N+](=O)[O-])cc3[N+](=O)[O-])c2c1` [ML-31, N-(2,4-dinitro-5-aminophenyl)-5′-methyltryptamine], for which, in experiment [1], the “protection against glutamate-mediated damage to the mitochondria (in words)” value (“protection” for short) was “without providing protection”, the “JC-1 ratio B (+glutamate 5 mM)” value was 1.57, the “JC-1 ratio A (control conditions)” value was 1.93 and the “effect on mitochondrial membrane potential of the control cells (in words)” value (shortened to “effect”) is listed as “decreased”. The “JC-1 ratio B/A (%)” value in experiment [1] is reported as 81%. Moreover, in experiment [2], the “% bound at competitor concentration 10-6M” value was found to be 72%, the “125I-melatonin bound at competitor concentration 10-6M” value amounted to 334, the “% bound at competitor concentration 10-7M” value amounted to 94% and the “125I-melatonin bound at competitor concentration 10-7M” value turned out to be 438.

On to `COc1ccc2[nH]cc(CCNc3ccc([N+](=O)[O-])cc3[N+](=O)[O-])c2c1` [ML-23, N-(2,4-dinitrophenyl)-5-methoxytryptamine, reference compound], for which, in experiment [1], the “protection” value is “significantly protected”, the “JC-1 ratio B (+glutamate 5 mM)” value stood at 1.97, the “JC-1 ratio A (control conditions)” value is listed as 2.19 and the “effect” value was “did not decrease”. Further, the “JC-1 ratio B/A (%)” value in experiment [1] stood at 90%. For the same compound, in experiment [2], the “inhibition of the specific 125I-melatonin binding” value (from here on “inhibition”) was roughly 13%, the “% bound at competitor concentration 10-6M” value was 87%, the “125I-melatonin bound at competitor concentration 10-6M” value worked out at 403 and the “% bound at competitor concentration 10-7M” value was 94%. Besides, the “125I-melatonin bound at competitor concentration 10-7M” value in experiment [2] came to 435.

For the compound `COc1ccc2[nH]cc(CCNc3cc(NC(C)=O)c([N+](=O)[O-])cc3[N+](=O)[O-])c2c1` [ML-30, 2,4-dinitro-5-(5′-methoxytryptyl)aminoacetanilide], in experiment [1], the “protection” value is listed as “significantly protected”, the “JC-1 ratio B (+glutamate 5 mM)” value came out at 2.13, the “JC-1 ratio A (control conditions)” value stood at 1.83 and the “effect” value is given as “decreased”. Also, the “JC-1 ratio B/A (%)” value in experiment [1] is reported as 116%. Moreover, in experiment [2], the “% bound at competitor concentration 10-6M” value is recorded as 80%, the “125I-melatonin bound at competitor concentration 10-6M” value was found to be 409, the “% bound at competitor concentration 10-7M” value stood at 96% and the “125I-melatonin bound at competitor concentration 10-7M” value came to 488.

Regarding `O=[N+]([O-])c1ccc(NCCc2c[nH]c3ccccc23)c([N+](=O)[O-])c1` [ML-25, N-(2,4-dinitrophenyl)tryptamine], in experiment [1], the “protection” value is given as “significantly protected”, the “JC-1 ratio B (+glutamate 5 mM)” value is 2.01, the “JC-1 ratio A (control conditions)” value amounted to 2.21 and the “effect” value is listed as “did not decrease”. Further, the “JC-1 ratio B/A (%)” value in experiment [1] was 91%. For the same compound, in experiment [2], the “% bound at competitor concentration 10-6M” value amounted to 91%, the “125I-melatonin bound at competitor concentration 10-6M” value is on record as 390, the “% bound at competitor concentration 10-7M” value turned out to be 92% and the “125I-melatonin bound at competitor concentration 10-7M” value is 396.

Turning to `CC(=O)Nc1cc(NCCc2c[nH]c3ccccc23)c([N+](=O)[O-])cc1[N+](=O)[O-]` [ML-26, 2,4-dinitro-5-tryptylaminoacetanilide], in experiment [1], the “protection” value is given as “significantly protected”, the “JC-1 ratio B (+glutamate 5 mM)” value is listed as 2.11, the “JC-1 ratio A (control conditions)” value worked out at 2.16 and the “effect” value is reported as “did not decrease”. The “JC-1 ratio B/A (%)” value in experiment [1] stood at 98%. Further, in experiment [2], the “% bound at competitor concentration 10-6M” value is given as 99%, the “125I-melatonin bound at competitor concentration 10-6M” value was determined as 411, the “% bound at competitor concentration 10-7M” value is listed as 104% and the “125I-melatonin bound at competitor concentration 10-7M” value worked out at 435.

For the compound `CC(=O)Nc1cc(NCCc2c[nH]c3ccc(C)cc23)c([N+](=O)[O-])cc1[N+](=O)[O-]` [ML-29, 2,4-dinitro-5-(5′-methyltryptyl)aminoacetanilide], in experiment [1], the “protection” value was “without providing protection”, the “JC-1 ratio B (+glutamate 5 mM)” value is reported as 1.79, the “JC-1 ratio A (control conditions)” value was determined as 2.28 and the “effect” value is reported as “decreased”. The “JC-1 ratio B/A (%)” value in experiment [1] was determined as 78%. Also, in experiment [2], the “% bound at competitor concentration 10-6M” value was found to be 80%, the “125I-melatonin bound at competitor concentration 10-6M” value was 358, the “% bound at competitor concentration 10-7M” value is 90% and the “125I-melatonin bound at competitor concentration 10-7M” value was 404.

On to `COc1ccc2[nH]cc(CCNC(C)=O)c2c1` [Melatonin, reference compound], for which, in experiment [1], the “protection” value was “significantly protected”, the “JC-1 ratio B (+glutamate 5 mM)” value came out at 2.44, the “JC-1 ratio A (control conditions)” value is on record as 2.48 and the “JC-1 ratio B/A (%)” value is given as 98%. In addition, in experiment [2], the “inhibition” value was found to be 20%, the “% bound at competitor concentration 10-6M” value is given as 79%, the “125I-melatonin bound at competitor concentration 10-6M” value stood at 335 and the “% bound at competitor concentration 10-7M” value is listed as 89%. In addition, the “125I-melatonin bound at competitor concentration 10-7M” value in experiment [2] is on record as 377.

With `Cc1ccc2[nH]cc(CCNc3ccc([N+](=O)[O-])cc3[N+](=O)[O-])c2c1` [ML-28, N-(2,4-dinitrophenyl)-5-methyltryptamine], in experiment [1], the “protection” value is “did not protect”, the “JC-1 ratio B (+glutamate 5 mM)” value is on record as 2.28, the “JC-1 ratio A (control conditions)” value was 2.77 and the “effect” value is “elevated”. In addition, the “JC-1 ratio B/A (%)” value in experiment [1] is on record as 82%. Besides, in experiment [2], the “inhibition” value is listed as roughly 13%, the “% bound at competitor concentration 10-6M” value was 87%, the “125I-melatonin bound at competitor concentration 10-6M” value came to 365 and the “% bound at competitor concentration 10-7M” value stood at 91%. In addition, in experiment [2], the “125I-melatonin bound at competitor concentration 10-7M” value is given as 381.

On to `Nc1cc(NCCc2c[nH]c3ccccc23)c([N+](=O)[O-])cc1[N+](=O)[O-]` [ML-27, N-(2,4-dinitro-5-aminophenyl)tryptamine], for which, in experiment [1], the “protection” value is “significantly protected”, the “JC-1 ratio B (+glutamate 5 mM)” value is 1.83, the “JC-1 ratio A (control conditions)” value was 1.80 and the “effect” value was “decreased”. The “JC-1 ratio B/A (%)” value in experiment [1] is recorded as 102%. In experiment [2], the “inhibition” value is roughly 13%, the “% bound at competitor concentration 10-6M” value is listed as 87%, the “125I-melatonin bound at competitor concentration 10-6M” value is on record as 426 and the “% bound at competitor concentration 10-7M” value is 92%. Moreover, the “125I-melatonin bound at competitor concentration 10-7M” value in experiment [2] was found to be 448.

`COc1ccc2[nH]cc(CCNc3cc(N)c([N+](=O)[O-])cc3[N+](=O)[O-])c2c1` [ML-32, N-(2,4-dinitro-5-aminophenyl)-5′-methoxytryptamine]: in experiment [1], the “protection” value is given as “without providing protection”, the “JC-1 ratio B (+glutamate 5 mM)” value came out at 1.76, the “JC-1 ratio A (control conditions)” value was 2.15 and the “effect” value is on record as “decreased”. Further, in experiment [1], the “JC-1 ratio B/A (%)” value is 82%. In addition, in experiment [2], the “% bound at competitor concentration 10-6M” value was determined as 93%, the “125I-melatonin bound at competitor concentration 10-6M” value is 419, the “% bound at competitor concentration 10-7M” value came to 90% and the “125I-melatonin bound at competitor concentration 10-7M” value is given as 408.
